The text below walks through data of the OligoGym collection.

HELM strings list units from the 5' end as sugar, base in round brackets, then linkage (d deoxyribose, r ribose, m 2'-O-methyl, p phosphodiester). Strings are as the collection lists them; they lack the last nucleoside at the 3' end of the tested compound. [moe] = 2'-O-(2-methoxyethyl) (MOE); [sp] = phosphorothioate linkage; [m5C] = 5-methylcytosine

For the data set, the target named is SCN2A. Kind of data set: mouse, dose not given. The note with it: ASO.
The substance “RNA1{[moe](T)[sp].[moe]([m5C])p.[moe](T)p.[moe](T)p.[moe](T)p.d([m5C])[sp].d(T)[sp].d(T)[sp].d(A)[sp].d(T)[sp].d(T)[sp].d(T)[sp].d([m5C])[sp].d(T)[sp].d(G)[sp].[moe](T)p.[moe](T)p.[moe](T)[sp].[moe]([m5C])}$$$$ (last 3' nucleoside missing)” gave a 3 h FOB score of 1.67 score 0-7.

Regarding “RNA1{[moe](T)[sp].[moe]([m5C])p.[moe](T)p.[moe](T)p.d(T)[sp].d([m5C])[sp].d(T)[sp].d(T)[sp].d(A)[sp].d(T)[sp].d(T)[sp].d(T)[sp].d([m5C])[sp].d(T)[sp].[moe](G)p.[moe](T)p.[moe](T)p.[moe](T)[sp].[moe]([m5C])}$$$$ (last 3' nucleoside missing)”, the 3 h FOB score came to 0 score 0-7.

On to “RNA1{[moe](T)[sp].[moe]([m5C])p.[moe](T)p.[moe]([m5C])p.[moe](T)p.d(T)[sp].d(T)[sp].d([m5C])[sp].d(T)[sp].d(T)[sp].d(A)[sp].d(T)[sp].d(T)[sp].d(T)[sp].d([m5C])[sp].[moe](T)p.[moe](G)p.[moe](T)[sp].[moe](T)}$$$$ (last 3' nucleoside missing)”, for which the 3 h FOB score turned out to be 0 score 0-7.

“RNA1{[moe](T)[sp].[moe]([m5C])p.[moe](T)p.[moe]([m5C])p.d(T)[sp].d(T)[sp].d(T)[sp].d([m5C])[sp].d(T)[sp].d(T)[sp].d(A)[sp].d(T)[sp].d(T)[sp].d(T)[sp].[moe]([m5C])p.[moe](T)p.[moe](G)p.[moe](T)[sp].[moe](T)}$$$$ (last 3' nucleoside missing)” yielded a 3 h FOB score of 0 score 0-7.

Regarding “RNA1{[moe](T)[sp].[moe]([m5C])p.[moe]([m5C])p.[moe](A)p.[moe]([m5C])p.[moe](G)p.d(A)[sp].d([m5C])[sp].d(A)[sp].d(T)[sp].d(A)[sp].d(T)[sp].d(T)[sp].d(T)[sp].d(T)[sp].d(T)[sp].[moe]([m5C])p.[moe](T)[sp].[moe](A)}$$$$ (last 3' nucleoside missing)”, the 3 h FOB score stood at 0 score 0-7.

Regarding “RNA1{[moe](T)[sp].[moe]([m5C])p.[moe]([m5C])p.[moe](A)p.[moe]([m5C])p.d(G)[sp].d(A)[sp].d([m5C])[sp].d(A)[sp].d(T)[sp].d(A)[sp].d(T)[sp].d(T)[sp].d(T)[sp].d(T)[sp].[moe](T)p.[moe]([m5C])p.[moe](T)[sp].[moe](A)}$$$$ (last 3' nucleoside missing)”, the 3 h FOB score turned out to be 1.33 score 0-7.

With “RNA1{[moe](T)[sp].[moe]([m5C])p.[moe]([m5C])p.[moe](A)p.d([m5C])[sp].d(G)[sp].d(A)[sp].d([m5C])[sp].d(A)[sp].d(T)[sp].d(A)[sp].d(T)[sp].d(T)[sp].d(T)[sp].[moe](T)p.[moe](T)p.[moe]([m5C])p.[moe](T)[sp].[moe](A)}$$$$ (last 3' nucleoside missing)”, the 3 h FOB score amounted to 0 score 0-7.

On to “RNA1{[moe]([m5C])[sp].[moe](A)p.[moe](G)p.[moe](T)p.d(T)[sp].d(T)[sp].d(T)[sp].d(T)[sp].d(T)[sp].d([m5C])[sp].d(A)[sp].d(T)[sp].d(T)[sp].d(G)[sp].[moe]([m5C])p.[moe](A)p.[moe](T)p.[moe]([m5C])[sp].[moe]([m5C])}$$$$ (last 3' nucleoside missing)”, for which the 3 h FOB score turned out to be 2 score 0-7.

In turn, “RNA1{[moe]([m5C])[sp].[moe](A)p.[moe](G)p.[moe]([m5C])p.[moe](A)p.[moe](T)p.d(A)[sp].d(T)[sp].d(T)[sp].d([m5C])[sp].d(T)[sp].d(A)[sp].d(A)[sp].d([m5C])[sp].d(A)[sp].d(T)[sp].[moe](G)p.[moe](G)[sp].[moe](T)}$$$$ (last 3' nucleoside missing)” had a 3 h FOB score of 0 score 0-7.

“RNA1{[moe]([m5C])[sp].[moe](A)p.[moe](G)p.[moe]([m5C])p.[moe](A)p.[moe](T)p.d(G)[sp].d(T)[sp].d(T)[sp].d(T)[sp].d(A)[sp].d(T)[sp].d([m5C])[sp].d(T)[sp].d(T)[sp].d(A)[sp].[moe](G)p.[moe](T)[sp].[moe](T)}$$$$ (last 3' nucleoside missing)”: the 3 h FOB score was determined as 0 score 0-7.

In the case of “RNA1{[moe]([m5C])[sp].[moe](A)p.[moe](G)p.[moe]([m5C])p.d(A)[sp].d(T)[sp].d(A)[sp].d(T)[sp].d(T)[sp].d([m5C])[sp].d(T)[sp].d(A)[sp].d(A)[sp].d([m5C])[sp].[moe](A)p.[moe](T)p.[moe](G)p.[moe](G)[sp].[moe](T)}$$$$ (last 3' nucleoside missing)”, the 3 h FOB score stood at 0 score 0-7.

Turning to “RNA1{[moe]([m5C])[sp].[moe](A)p.[moe](G)p.[moe]([m5C])p.d(A)[sp].d(T)[sp].d(G)[sp].d(T)[sp].d(T)[sp].d(T)[sp].d(A)[sp].d(T)[sp].d([m5C])[sp].d(T)[sp].[moe](T)p.[moe](A)p.[moe](G)p.[moe](T)[sp].[moe](T)}$$$$ (last 3' nucleoside missing)”, the 3 h FOB score is 0 score 0-7.

Substance “RNA1{[moe]([m5C])[sp].[moe](A)p.[moe](T)p.[moe](A)p.[moe](A)p.[moe](T)p.d([m5C])[sp].d([m5C])[sp].d([m5C])[sp].d(A)[sp].d(T)[sp].d(T)[sp].d(A)[sp].d(T)[sp].d(A)[sp].d([m5C])[sp].[moe](A)p.[moe](A)[sp].[moe](A)}$$$$ (last 3' nucleoside missing)” gave a 3 h FOB score of 0 score 0-7.

“RNA1{[moe]([m5C])[sp].[moe](A)p.[moe](T)p.[moe](A)p.[moe](A)p.d(T)[sp].d([m5C])[sp].d([m5C])[sp].d([m5C])[sp].d(A)[sp].d(T)[sp].d(T)[sp].d(A)[sp].d(T)[sp].d(A)[sp].[moe]([m5C])p.[moe](A)p.[moe](A)[sp].[moe](A)}$$$$ (last 3' nucleoside missing)” gave a 3 h FOB score of 0 score 0-7.

In turn, “RNA1{[moe]([m5C])[sp].[moe](A)p.[moe](T)p.[moe](A)p.[moe](T)p.d(T)[sp].d(T)[sp].d(T)[sp].d(T)[sp].d([m5C])[sp].d(T)[sp].d(A)[sp].d([m5C])[sp].d(A)[sp].d([m5C])[sp].[moe](T)p.[moe](G)p.[moe]([m5C])[sp].[moe](T)}$$$$ (last 3' nucleoside missing)” registered a 3 h FOB score of 2 score 0-7.

For the substance “RNA1{[moe]([m5C])[sp].[moe](A)p.[moe](T)p.[moe](A)p.d(A)[sp].d(T)[sp].d([m5C])[sp].d([m5C])[sp].d([m5C])[sp].d(A)[sp].d(T)[sp].d(T)[sp].d(A)[sp].d(T)[sp].[moe](A)p.[moe]([m5C])p.[moe](A)p.[moe](A)[sp].[moe](A)}$$$$ (last 3' nucleoside missing)”, the 3 h FOB score is 0 score 0-7.

Substance “RNA1{[moe]([m5C])[sp].[moe](A)p.[moe](T)p.[moe](A)p.d(T)[sp].d(T)[sp].d(T)[sp].d(T)[sp].d(T)[sp].d([m5C])[sp].d(T)[sp].d(A)[sp].d([m5C])[sp].d(A)[sp].[moe]([m5C])p.[moe](T)p.[moe](G)p.[moe]([m5C])[sp].[moe](T)}$$$$ (last 3' nucleoside missing)” gave a 3 h FOB score of 2 score 0-7.

In turn, “RNA1{[moe]([m5C])[sp].[moe](A)p.[moe](T)p.[moe](G)[sp].d(T)[sp].d(A)[sp].d(A)[sp].d([m5C])[sp].d([m5C])[sp].d(T)[sp].d(T)[sp].d(T)[sp].[moe](A)p.[moe](T)p.[moe](A)p.[moe]([m5C])[sp].[moe](A)}$$$$ (last 3' nucleoside missing)” registered a 3 h FOB score of 0 score 0-7.

Turning to “RNA1{[moe]([m5C])[sp].[moe](A)p.[moe](T)p.[moe](G)p.[moe](T)[sp].d(A)[sp].d(A)[sp].d([m5C])[sp].d([m5C])[sp].d(T)[sp].d(T)[sp].d(T)[sp].d(A)[sp].[moe](T)p.[moe](A)p.[moe]([m5C])[sp].[moe](A)}$$$$ (last 3' nucleoside missing)”, the 3 h FOB score was determined as 0 score 0-7.

For “RNA1{[moe]([m5C])[sp].[moe](A)p.[moe](T)p.[moe](G)p.[moe](T)p.[moe](A)[sp].d(A)[sp].d([m5C])[sp].d([m5C])[sp].d(T)[sp].d(T)[sp].d(T)[sp].d(A)[sp].d(T)[sp].[moe](A)p.[moe]([m5C])[sp].[moe](A)}$$$$ (last 3' nucleoside missing)”, the 3 h FOB score was determined as 0 score 0-7.

On to “RNA1{[moe]([m5C])[sp].[moe](A)p.[moe](T)p.[moe](G)p.[moe](T)p.[moe](A)p.d(A)[sp].d(T)[sp].d([m5C])[sp].d(A)[sp].d([m5C])[sp].d(T)[sp].d(T)[sp].d(T)[sp].d([m5C])[sp].d(A)[sp].[moe](T)p.[moe]([m5C])[sp].[moe]([m5C])}$$$$ (last 3' nucleoside missing)”, for which the 3 h FOB score was 0 score 0-7.

“RNA1{[moe]([m5C])[sp].[moe](A)p.[moe](T)p.[moe](G)p.[moe](T)p.[moe](A)p.d(A)[sp].d([m5C])[sp].d([m5C])[sp].d(T)[sp].d(T)[sp].d(T)[sp].d(A)[sp].d(T)[sp].d(A)[sp].d([m5C])[sp].[moe](A)p.[moe](T)[sp].[moe](T)}$$$$ (last 3' nucleoside missing)” showed a 3 h FOB score of 0 score 0-7.

For “RNA1{[moe]([m5C])[sp].[moe](A)p.[moe](T)p.[moe](G)p.[moe](T)p.d(A)[sp].d(A)[sp].d(T)[sp].d([m5C])[sp].d(A)[sp].d([m5C])[sp].d(T)[sp].d(T)[sp].d(T)[sp].d([m5C])[sp].[moe](A)p.[moe](T)p.[moe]([m5C])[sp].[moe]([m5C])}$$$$ (last 3' nucleoside missing)”, the 3 h FOB score was 0 score 0-7.

In the case of “RNA1{[moe]([m5C])[sp].[moe](A)p.[moe](T)p.[moe](G)p.[moe](T)p.d(A)[sp].d(A)[sp].d([m5C])[sp].d([m5C])[sp].d(T)[sp].d(T)[sp].d(T)[sp].d(A)[sp].d(T)[sp].d(A)[sp].[moe]([m5C])p.[moe](A)p.[moe](T)[sp].[moe](T)}$$$$ (last 3' nucleoside missing)”, the 3 h FOB score worked out at 0 score 0-7.

In the case of “RNA1{[moe]([m5C])[sp].[moe](A)p.[moe](T)p.[moe](G)p.[moe]([m5C])p.[moe](A)p.d(T)[sp].d(A)[sp].d(A)[sp].d(T)[sp].d([m5C])[sp].d([m5C])[sp].d([m5C])[sp].d(A)[sp].d(T)[sp].d(T)[sp].[moe](A)p.[moe](T)[sp].[moe](A)}$$$$ (last 3' nucleoside missing)”, the 3 h FOB score was determined as 0 score 0-7.
